The target of the assay is T1, recombinant human SAE enzyme (Homo sapiens, UniProt Q9UBT2).
T1 sequence (Q9UBT2 1-640): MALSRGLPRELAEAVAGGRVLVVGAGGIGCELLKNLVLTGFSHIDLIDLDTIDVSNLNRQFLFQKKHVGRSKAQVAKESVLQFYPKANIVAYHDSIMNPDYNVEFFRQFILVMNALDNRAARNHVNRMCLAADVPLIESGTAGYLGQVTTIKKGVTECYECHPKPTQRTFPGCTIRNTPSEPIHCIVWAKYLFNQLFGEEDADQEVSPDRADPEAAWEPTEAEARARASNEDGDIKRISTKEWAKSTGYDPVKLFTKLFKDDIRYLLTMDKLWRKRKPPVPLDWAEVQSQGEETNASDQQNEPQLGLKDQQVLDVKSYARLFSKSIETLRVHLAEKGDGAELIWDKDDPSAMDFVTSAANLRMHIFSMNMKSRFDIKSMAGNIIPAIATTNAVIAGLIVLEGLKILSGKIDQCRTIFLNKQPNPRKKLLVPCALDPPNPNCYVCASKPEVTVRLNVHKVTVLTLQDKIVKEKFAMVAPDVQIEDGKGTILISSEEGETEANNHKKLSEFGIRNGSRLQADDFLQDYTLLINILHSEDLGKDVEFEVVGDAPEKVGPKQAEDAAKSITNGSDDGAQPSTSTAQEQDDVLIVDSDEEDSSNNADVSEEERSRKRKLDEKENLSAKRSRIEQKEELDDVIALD
T1 sequence (Q9UBE0 1-346 partner): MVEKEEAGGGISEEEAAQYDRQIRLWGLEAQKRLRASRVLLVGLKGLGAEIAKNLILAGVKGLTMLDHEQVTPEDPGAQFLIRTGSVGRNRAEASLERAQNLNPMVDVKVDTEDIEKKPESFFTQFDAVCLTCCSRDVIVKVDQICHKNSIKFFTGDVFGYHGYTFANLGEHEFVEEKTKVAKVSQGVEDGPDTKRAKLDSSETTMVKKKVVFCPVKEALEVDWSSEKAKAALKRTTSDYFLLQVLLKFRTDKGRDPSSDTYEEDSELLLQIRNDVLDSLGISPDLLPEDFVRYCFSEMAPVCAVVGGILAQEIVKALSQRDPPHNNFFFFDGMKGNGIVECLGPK
The assay is described as follows: SAE HTRF Enzyme Assay. The format is biochemical. Particulars: for IC50: class symbols A-C; for inhibition at 0.111 µM: compound concentration 0.111 μM, read-out: Percent Inhibition. Put shortly: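 SAE 0.11 nM; ATP 0.5 μM; Sumo-Flag 0.125 μM; Ubc9-GST 0.01 μM; 250 μM GSH, 5 mM MgCl2, pH 7.5. 105 min, 24° C. EDTA/KF stop plus Eu/APC antibodies, 2 h, TR-FRET. % inhibition or IC50.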

SMILES strings stand for the structures.

As a reminder, the IC50 is the concentration at which inhibition is half-maximal. The term inhibition denotes the change of the read-out against control, counted positive when it falls.

With `NS(=O)(=O)OC[C@H]1C[C@@H](Nc2ncncc2C(=O)c2ccn(CC#CCC3CCCC3)n2)C[C@@H]1O` [Compound I-59, {(1R,2S,4R)-4-[(5-{[1-(4-cyclopentylbut-2-yn-1-yl)-1H-pyrazol-3-yl]carbonyl}pyrimidin-4-yl)amino]-2-hydroxycyclopentyl}methyl sulfamate], the IC50 lay within 10 to 100 nM and the inhibition at 0.111 µM was 70%.
As to `CC(C)(O)c1cccc(Cn2ccc(C(=O)c3cncnc3N[C@@H]3C[C@H](COS(N)(=O)=O)[C@@H](O)C3)n2)c1` [Compound I-60, [(1R,2S,4R)-2-hydroxy-4-{[5-({1-[3-(2-hydroxypropan-2-yl)benzyl]-1H-pyrazol-3-yl}carbonyl)pyrimidin-4-yl]amino}cyclopentyl]methyl sulfamate], the IC50 fell in the range of 10 to 100 nM and the inhibition at 0.111 µM was determined as 91%.
In the case of `NS(=O)(=O)OC[C@H]1C[C@@H](Nc2ncncc2C(=O)c2cc(Cl)n(Cc3cccc(Cl)c3)c2)[C@@H](F)[C@@H]1O` [Compound I-61], the IC50 was < 10 nM and the inhibition at 0.111 µM amounted to 99%.
For `NS(=O)(=O)OC[C@H]1C[C@@H](Nc2ncncc2C(=O)c2ccn(Cc3ccc(F)cc3F)n2)C[C@@H]1O` [Compound I-62, {(1R,2S,4R)-4-[(5-{[1-(2,4-difluorobenzyl)-1H-pyrazol-3-yl]carbonyl}pyrimidin-4-yl)amino]-2-hydroxycyclopentyl}methyl sulfamate], the IC50 was < 10 nM and the inhibition at 0.111 µM turned out to be 96%.
For `COc1ncccc1Cn1ccc(C(=O)c2cncnc2N[C@@H]2C[C@H](COS(N)(=O)=O)[C@@H](O)C2)n1` [Compound I-63, [(1R,2S,4R)-2-hydroxy-4-{[5-({1-[(2-methoxypyridin-3-yl)methyl]-1H-pyrazol-3-yl}carbonyl)pyrimidin-4-yl]amino}cyclopentyl]methyl sulfamate], the IC50 is 10 to 100 nM and the inhibition at 0.111 µM is 87%.
The like results for `CC(C)(C)c1cccc(Cn2ccc(C(=O)c3cncnc3N[C@@H]3C[C@H](COS(N)(=O)=O)[C@@H](O)C3)n2)c1` [Compound I-64, {(1R,2S,4R)-4-[(5-{[1-(3--tert-butylbenzyl)-1H-pyrazol-3-yl]carbonyl}pyrimidin-4-yl)amino]-2-hydroxycyclopentyl}methyl sulfamate] were, in that order, 10 to 100 nM and 91%.
With `Cc1cc(C(=O)c2cncnc2N[C@@H]2C[C@H](COS(N)(=O)=O)[C@@H](O)C2)nn1Cc1ccccc1` [Compound I-66, [(1R,2S,4R)-4-({5-[(1-benzyl-5-methyl-1H-pyrazol-3-yl)carbonyl]pyrimidin-4-yl}amino)-2-hydroxycyclopentyl]methyl sulfamate], the IC50 is < 10 nM and the inhibition at 0.111 µM was determined as 98%.
The like results for `NS(=O)(=O)OC[C@H]1C[C@@H](Nc2ncncc2C(=O)c2ccn(Cc3cccc(NC(=O)CCl)c3)n2)[C@H](O)[C@@H]1O` [Compound I-67, [(1R,2R,3S,4R)-4-({5-[(1-{3-[(chloroacetyl)amino]benzyl}-1H-pyrazol-3-yl)carbonyl]pyrimidin-4-yl}amino)-2,3-dihydroxycyclopentyl]methyl sulfamate] were, in that order, < 10 nM and 94%.
The like results for `NS(=O)(=O)OC[C@H]1C[C@@H](Nc2ncncc2C(=O)c2ccn(Cc3cccc(I)c3)c2)C[C@@H]1O` [Compound I-68, {(1R,2S,4R)-2-hydroxy-4-[(5-{[1-(3-iodobenzyl)-1H-pyrrol-3-yl]carbonyl}pyrimidin-4-yl)amino]cyclopentyl}methyl sulfamate] were, in that order, < 10 nM and 99%.
For the compound `NS(=O)(=O)OC[C@H]1C[C@@H](Nc2ncncc2C(=O)c2ccn(Cc3ccc(C(F)(F)F)cc3C(F)(F)F)n2)C[C@@H]1O` [Compound I-69, [(1R,2S,4R)-4-{[5-({1-[2,4-bis(trifluoromethyl)benzyl]-1H-pyrazol-3-yl}carbonyl)pyrimidin-4-yl]amino}-2-hydroxycyclopentyl]methyl sulfamate], the IC50 was 100 to 1000 nM and the inhibition at 0.111 µM came out at 39%.
The like results for `NS(=O)(=O)OC[C@H]1C[C@@H](Nc2ncncc2C(=O)c2ccn(Cc3cc(Cl)ccn3)n2)[C@H](O)[C@@H]1O` [Compound I-70, [(1R,2R,3S,4R)-4-{[5-({1-[(4-chloropyridin-2-yl)methyl]-1H-pyrazol-3-yl}carbonyl)pyrimidin-4-yI]amino}-2,3-dihydroxycyclopentyl]methyl sulfamate] were, in that order, < 10 nM and 99%.
`Cc1cc(C(=O)c2cncnc2N[C@@H]2C[C@H](COS(N)(=O)=O)[C@@H](O)[C@@H]2F)cn1Cc1cccc(Br)c1` [Compound I-71, {(1R,2R,3R,4R)-4-[(5-{[1-(3-bromobenzyl)-5-methyl-1H-pyrrol-3-yl]carbonyl}pyrimidin-4-yl)amino]-3-fluoro-2-hydroxycyclopentyl}methyl sulfamate]: the IC50 was < 10 nM and the inhibition at 0.111 µM worked out at 100%.
Turning to `NS(=O)(=O)OC[C@H]1C[C@@H](Nc2ncncc2C(=O)c2ccn(Cc3ccc(F)c(Br)c3)n2)C[C@@H]1O` [Compound I-72, {(1R,2S,4R)-4-[(5-{[1-(3-bromo-4-fluorobenzyl)-1H-pyrazol-3-yl]carbonyl}pyrimidin-4-yl)amino]-2-hydroxycyclopentyl}methyl sulfamate], the IC50 is < 10 nM and the inhibition at 0.111 µM worked out at 100%.
`NS(=O)(=O)OC[C@H]1C[C@@H](Nc2ncncc2C(=O)c2ccn(Cc3cnc(C(F)(F)F)s3)c2)C[C@@H]1O` [Compound I-73, [(1R,2S,4R)-2-hydroxy-4-({5-[(1-{[2-(trifluoromethyl)-1,3-thiazol-5-yl]methyl}-1H-pyrrol-3-yl)carbonyl]pyrimidin-4-yl}amino)cyclopentyl]methyl sulfamate]: the IC50 is < 10 nM and the inhibition at 0.111 µM came out at 94%.
For `COC(C)(C)C#CCn1ccc(C(=O)c2cncnc2N[C@@H]2C[C@H](COS(N)(=O)=O)[C@@H](O)[C@@H]2F)c1` [Compound I-75, {(1R,2R,3R,4R)-3-fluoro-2-hydroxy-4-[(5-{[1-(4-methoxy-4-methylpent-2-yn-1-yl)-1H-pyrrol-3-yl]carbonyl}pyrimidin-4-yl)amino]cyclopentyl}methyl sulfamate], the IC50 is 10 to 100 nM and the inhibition at 0.111 µM was 68%.
Consider `CC(C)(c1ccccc1)n1ccc(C(=O)c2cncnc2N[C@@H]2C[C@H](COS(N)(=O)=O)[C@@H](O)C2)c1` [Compound I-76, {(1R,2S,4R)-2-hydroxy-4-[(5-{[1-(2-phenylpropan-2-yl)-1H-pyrrol-3-yl]carbonyl}pyrimidin-4-yl)amino]cyclopentyl}methyl sulfamate], for which the IC50 was in the range of 10 to 100 nM and the inhibition at 0.111 µM is 80%.
The like results for `NS(=O)(=O)OC[C@H]1C[C@@H](Nc2ccncc2C(=O)c2ccn(Cc3ccc(Cl)c(Cl)c3)n2)C[C@@H]1O` [Compound I-78, {(1R,2S,4R)-4-[(3-{[1-(3,4-dichlorobenzyl)-1H-pyrazol-3-yl]carbonyl}pyridin-4-yl)amino]-2-hydroxycyclopentyl}methyl sulfamate] were, in that order, < 10 nM and 97%.
The like results for `Cn1cccc(Cn2ccc(C(=O)c3cncnc3N[C@@H]3C[C@H](COS(N)(=O)=O)[C@@H](O)C3)n2)c1=O` [Compound I-80, [(1R,2S,4R)-2-hydroxy-4-{[5-({1-[(1-methyl-2-oxo-1,2-dihydropyridin-3-yl)methyl]-1H-pyrazol-3-yl}carbonyl)pyrimidin-4-yl]amino}cyclopentyl]methyl sulfamate] were, in that order, < 10 nM and 96%.
As to `NS(=O)(=O)OC[C@H]1C[C@@H](Nc2ccncc2C(=O)c2ccn(Cc3cccc(Cl)c3)n2)[C@H](O)[C@@H]1O` [Compound I-81, {(1R,2R,3S,4R)-4-[(3-{[1-(3-chlorobenzyl)-1H-pyrazol-3-yl]carbonyl}pyridin-4-yl)amino]-2,3-dihydroxycyclopentyl}methyl sulfamate], the IC50 is < 10 nM and the inhibition at 0.111 µM is 98%.
For the compound `NS(=O)(=O)OC[C@H]1C[C@@H](Nc2ncncc2C(=O)c2ccn(CC3CCCCC3)n2)[C@H](O)[C@@H]1O` [Compound I-82, {(1R,2R,3S,4R)-4-[(5-{[1-(cyclohexylmethyl)-1H-pyrazol-3-yl]carbonyl}pyrimidin-4-yl)amino]-2,3-dihydroxycyclopentyl}methyl sulfamate], the IC50 is < 10 nM and the inhibition at 0.111 µM turned out to be 96%.
